In patent publication EP3219329A1, “COMBINATIONS OF COPANLISIB” (Bayer Pharma Aktiengesellschaft, priority 2016, dated 2017):

Tested on: primary (PDX) human lymphoma model LY2298
Experiment: In vivo B cell lymphoma xenograft model (PDX)
From the text: Anti-tumor activity of cpd. B has been analyzed in murine xenograft models. For that purpose tumor fragments from stock mice inoculated with primary human lymphoma tissue were harvested and used for inoculation into female NOD/SCID mice. Each mouse was inoculated subcutaneously at the right flank with primary (PDX) human lymphoma model LY2298 fragment (P7, 2-4 mm in diameter) for tumor development. The treatment was started when the average tumor size reached about 158 mm^3. Mice were allocated randomly into experimental groups according to their tumor sizes, 10 mice per group. The day was denoted as day 0. Treatments were administrated to tumor-bearing mice from day 1 through day 34. Treatment groups were: vehicle control, cpd. B monotherapy, cpd. A monotherapy and combination of cpd. B and cpd A (Table C). Body weights were determined twice per week. Changes in body weight were depicted as treatment related toxicities (>10% stop treatment, >20% termination). Tumor sizes were measured twice weekly in two dimensions using a caliper, and the volume is expressed in mm^3 using the formula: V = 0.5 a x b^2, where a and b are the long and short diameters of the tumor, respectively. The T/C value is an indicator of tumor response to treatment and commonly used as anti-tumor activity endpoint. T and C are the mean tumor volume of the treated and control groups, respectively. Statistical analysis of difference in tumor volume among the groups was evaluated using one-way ANOVA followed by pairweise comparison procedures (Dunett method). P < 0.05 was considered to be statistically significant.
B in monotherapy and combination therapy with cpd. A during treatment of human LY2298 ABC-DLBCL tumors. Cpd. B has been applied orally upon a dose of 20 mg/kg once daily. Cpd. A was applied intraveneously for 2 days followd by a 5 day treatment break upon a dose of 14 mg/kg. Cpd. […] Cpd. […] TABLE C: Anti-Tumor activity of cpd. B in monotherapy and combination with cpd. A in LY2298 PDX model in NOD/SCID mice.

Question: `COc1c(OCCCN2CCOCC2)ccc2c1N=C(NC(=O)c1cnc(N)nc1)N1CCN=C21.Cl.Cl` [cpd. A, 2-amino-N-[7-methoxy-8-(3-morpholin-4-ylpropoxy)-2,3-dihydroimid-azo[1,2-c]quinazolin-5-yl]pyrimidine-5-carboxamide dihydrochloride] was tested. Which “Max. body weight loss (%)” value (LY2298 PDX in NOD/SCID mice, cpd. B 20 mg/kg QD p.o., cpd. A 14 mg/kg QD 2on/5off i.v., maximum mean loss as percent of starting weight) did it give?
Answer: Its value is -5%.

Question: What about the “T/C Volume (at day 20)” value (LY2298 PDX in NOD/SCID mice, cpd. B 20 mg/kg QD p.o., cpd. A 14 mg/kg QD 2on/5off i.v., mean tumor volume treated/control, * P<0.05 vs. Vehicle) of the same molecule?
Answer: Its value is 0.22*.

Question: What about the “Response (at termination)” value (LY2298 PDX in NOD/SCID mice, cpd. B 20 mg/kg QD p.o., cpd. A 14 mg/kg QD 2on/5off i.v., number of tumors per response class, 10 mice per group) of the same molecule?
Answer: Its value is 7x PD, 1x SD, 1x PR, 1x CR.

Question: What about the anti-tumor activity (human LY2298 ABC-DLBCL tumors, cpd. B 20 mg/kg once daily orally, cpd. A 14 mg/kg i.v. 2 days on, 5 days break, result in words) of the same molecule?
Answer: Its anti-tumor activity is “initially a strong anti-tumor activity but after 20 treatment days a clear tumor relapse”.
